Columns and labels:
MB231 cells [1] = assay: Cell death by propidium iodide staining and FACS cell cycle analysis; assay type: cell-based, human; conditions: MB231, α-MT 2.5 mM and 3-MA 10 mM, either alone or together, 48 h
Protocol: (§1) FIGS. 9A to 9D. Influence of α-MT on mTOR activity In FIG. 9A, MCF7 and MB231 cells were treated without or with α-MT (2.5 mM) for 24 h, 48 h, or 72 h, and then the cell lysates were used for western blot. Influence of α-MT with or without 3-MA on cell death. In FIG. 9B, MCF7, MB231, and MCF10A cells were treated for 48 h without or with α-MT (2.5 mM), 3-MA (10 mM), or α-MT (2.5 mM) plus 3-MA (10 mM), and then analyzed for cell death by propidium iodide (PI) staining and FACS-based cell cycle analysis. In FIG. 9C, MCF7 cells were treated for 48 h without or with α-MT (2.5 mM), 3-MA (10 mM), or α-MT (2.5 mM) plus 3-MA (10 mM), and then analyzed for apoptotic cell death by annexin V labeling. In FIG. 9D, MCF7 and MB231 cells were treated without or with 2.5 mM α-MT for 24 h, 48 h, or 72 h. Cell lysates were then used for western blot analysis of lamin A degradation product using an antibody that recognizes specifically the proteolytic cleavage product. β-Actin was used as an internal control.
(§2) Apoptosis assay. Fluorescence-activated cell sorting (FACS) was used to monitor cell death. MCF7 cells were treated with or without α-MT, 3-MA, or α-MT plus 3-MA. Control and treated cells were then fixed in 50% ethanol, treated with 0.1% sodium citrate, 1 mg/ml RNase A, and 50 μg/ml propidium iodide, and then subjected to FACS analysis (FACS Caliber, Becton Dickinson). FITC-labeled annexin V was used to differentiate apoptotic cell death from necrotic cell death.

MCF10A cells = assay: as above; assay type: cell-based, human; conditions: α-MT 2.5 mM and 3-MA 10 mM, either alone or together, 48 h
Protocol: as §1, §2

MCF7 cells = assay: Apoptotic cell death by annexin V labeling; assay type: cell-based, human; conditions: MCF7, single agent (α-MT 2.5 mM or 3-MA 10 mM), 48 h
Protocol: as §1, §2

ZR75.1 cells [2] = assay: QCM cell migration assay; assay type: cell-based, human; conditions: ZR75.1, α-MT 2.5 mM, 48 h, p>0.05
Protocol: Migration and invasion assays. The influence of α-MT on cell migration and invasion was determined with ZR75.1 cells. The migration of these cells toward fetal bovine serum was measured using the QCM™ cell migration assay kit (Millipore) according to manufacturer's instructions. Serum-starved ZR75.1 cells were allowed to migrate for 48 h in the presence/absence of α-MT (2.5 mM). After removing the cells on the top of the membrane filter, the inserts were stained with 0.1% crystal violet, washed and dried. The crystal violet dye retained on the filters, representing the cells that migrated to the underside of the membrane filter, was extracted with acetic acid. The absorbance of the extract was measured at 570 nm. Cell invasion assay was performed similarly using the QCM™ cell invasion assay kit (Millipore). The inserts used in this assay were coated with ECMATRIX™, representing extracellular matrix.

MB231 cells [3] = assay: Xenograft in nude mice, tumor growth; assay type: in vivo, Balb/c nude mice; conditions: MB231 (ER-negative), α-MT in drinking water 2 mg/ml
Protocol: (§3) FIGS. 10A to 10D. In vivo efficacy of α-MT in the treatment of ER-positive breast cancer. ZR75.1 (FIG. 10A), MCF7 (FIG. 10B), and MB-231 (FIG. 10C) cells were injected subcutaneously (sc) into Balb/c nude mice (10×10^6 cells per injection site). For MCF7 cells, slow-releasing estrogen pellets were implanted to support the tumor growth. For each cell line, the control group received water with sucrose and the treatment group received α-MT (2 mg/ml) in water with sucrose. Tumor size was measured periodically. NS, not statistically significant (p>0.05); *, p<0.005; two-tailed unpaired Student's t test. In FIG. 10D, Balb/c nude mice were divided into two groups; the control group received water with sucrose and the treatment group received α-MT (2 mg/ml) in water with sucrose for 2 weeks. Mice were then bled and α-MT in plasma was determined by HPLC. Xenograft in nude mice. Human breast cancer cells (ZR75.1, MCF7, and MB231) were injected s.c. close to the lower mammary gland on the right side of Balb/c nude mice (10×10^6 cells per injection site). Only for MCF7 cells, slow-releasing estrogen pellets were implanted to support the tumor growth. Implantation of estrogen pellets was done as follows. […] Tumor size in control and treatment groups was measured periodically by caliper and […] was calculated using the formula (width^2×length)/2.

ZR75.1 cells [4] = assay: Xenograft in nude mice, tumor growth; assay type: in vivo, Balb/c nude mice; conditions: ZR75.1 (ER-positive), α-MT in drinking water 2 mg/ml
Protocol: as §3

[5] = Measurement of α-MT in mouse plasma by HPLC; assay type: in vivo, Balb/c nude mice; conditions: mice, two weeks of administration in drinking water (2 mg/ml)
Protocol: FIGS. 10A to 10D. In vivo efficacy of α-MT in the treatment of ER-positive breast cancer. ZR75.1 (FIG. 10A), MCF7 (FIG. 10B), and MB-231 (FIG. 10C) cells were injected subcutaneously (sc) into Balb/c nude mice (10×10^6 cells per injection site). For MCF7 cells, slow-releasing estrogen pellets were implanted to support the tumor growth. For each cell line, the control group received water with sucrose and the treatment group received α-MT (2 mg/ml) in water with sucrose. Tumor size was measured periodically. NS, not statistically significant (p>0.05); *, p<0.005; two-tailed unpaired Student's t test. In FIG. 10D, Balb/c nude mice were divided into two groups; the control group received water with sucrose and the treatment group received α-MT (2 mg/ml) in water with sucrose for 2 weeks. Mice were then bled and α-MT in plasma was determined by HPLC.
Measurement of α-MT in mouse plasma. Balb/c nude mice were divided into two groups; the control group received water with sucrose and the treatment group received α-MT (2 mg/ml) in water with sucrose for 2 weeks. Mice were then bled and α-MT in plasma was determined by HPLC as described by Laich et al (Laich et al., 2002, Clin Chem; 48:579-581).

## CC(N)(Cc1c[nH]c2ccccc12)C(=O)O (racemic) [α-MT, α-methyl-DL-tryptophan]
MB231 cells [1]
  effect on cell death: very little, if any, effect
MCF10A cells
  effect on cell death: very little, if any, effect
MCF7 cells
  apoptotic cell death by annexin V labeling: induced apoptotic cell death
ZR75.1 cells [2]
  migration in α-MT-treated cells: 87±7 % of control
MB231 cells [3]
  tumor growth in xenograft: did not affect the growth
ZR75.1 cells [4]
  tumor growth in xenograft: reduced the growth
[5]
  plasma concentration of α-MT: 8.5 ± 0.5 µM
